In data set [1] the test system is L1210 cancer cell (leukemia cell line). The data set can be described thus: Growth inhibition of L1210 cancer cell (MTT). It is filed as cell-based. Particulars: for IC50: Mus musculus. The protocol: (§1) In the present experiment, the inhibitory activity of the compound of formula (1) was determined against the growth of K562 cancer cell. First, the cells were allowed to stand in RPMI (Roswell Park Memorial Institute)-1640 medium containing 10% (v/v) fetal bovine serum in an incubator of 37° C. and 5% by volume of CO2. The cancer cells (1000 cells) were transferred to a 96-well plate, and the test compound was diluted. The plate was allowed to stand under the above mentioned conditions for 2 days. After this treatment, to the cells was added 0.2% MTT (3-[4,5-dimethylthiazol-2-yl]-2,5-diphenyltetrazolium bromide) solution, and the resulting mixture was allowed to stand under the constant temperature-condition for 4 hours. The supernatant was removed to leave the resulting crystal. DMSO was added to dissolve the crystal, and the absorbance of the solution was measured at 540 nm. IC50 value was calculated using a computer system according to the following formula: […]
In the present experiment, the inhibitory activity of the compound of formula (1) was determined against the growth of L1210 cancer cell. The test was performed according to the same procedure as Experiment 1.

Data set [2] concerns K562 cancer cell (CML cell line). The experiment in a line: Growth inhibition of K562 cancer cell (MTT). It is filed as cell-based. Particulars: Homo sapiens, K562, 48 h, K562, 2 days, MTT; read-out: IC50. The procedure:
In the present experiment, the inhibitory activity of the compound of formula (1) was determined against the growth of K562 cancer cell. First, the cells were allowed to stand in RPMI (Roswell Park Memorial Institute)-1640 medium containing 10% (v/v) fetal bovine serum in an incubator of 37° C. and 5% by volume of CO2. The cancer cells (1000 cells) were transferred to a 96-well plate, and the test compound was diluted. The plate was allowed to stand under the above mentioned conditions for 2 days. […] The supernatant was removed to leave the resulting crystal.

For data set [3], the system named is U937 cancer cell (monocyte like leukemia cell line). The data set can be described thus: Growth inhibition of U937 cancer cell (MTT). It is filed as cell-based. Conditions: Homo sapiens, U-937. The protocol:
as §1
In the present experiment, the inhibitory activity of the compound of formula (1) was determined against the growth of U937 cancer cell. The test was performed according to the same procedure as Experiment 1.

A short description of data set [4]: Comparative pharmacokinetic test in white rats. It counts as in vivo, white rats (Sprague-Dawley). Conditions: male, Sprague-Dawley, plasma, po, rat, 100 mg/kg, P.O. The protocol: On the previous day to the test, white rats (Sprague-Dawley, 250˜280 g, male) were put under anesthesia by pentobarbital sodium (50 mg/kg, I.P.). Then, cannula (polyethylene tube; diameter: 0.58mm) was introduced into the rats via the carotid artery and jugular vein, and drawn out to the back. After the operation, the rats were fasted for 16 hours and used for the test. […] Blood was collected in 0, 0.5, 1, 1.5, 2, 2.5, 3, 3.5, 4, 4.5, 5, 6, 8, 10, 12, and 24 hours from the carotid artery. The samples for HPLC analysis were prepared using the collected blood according to the following procedure and were analyzed under the following conditions.
Blood was collected by an amount of 0.5 ml at each prearranged time and centrifuged at 15000 rpm for 7 minutes to separate […] of plasma. In order to remove proteins, MeOH was added in an amount of […], twice as much as the amount of plasma, and the mixture was shaken for 30 minutes. The mixture was centrifuged again at 15000 rpm for 5 minutes to give protein free supernatant, which was then analyzed by HPLC.
Flow rate: 1.0 ml/min, UV detection at 267 nm
Column: 4.6×150 mm, 5C18-AR-II, COSMOSIL
Eluent: Mixture of ion pair sample (420 ml) and MeOH (580 ml)
Ion pair sample: 7.5 g of 1-octanesulfonic acid was dissolved in 800 ml of water. The resulting mixture was adjusted to pH 2.5 using phosphoric acid and diluted with water to 1000 ml volume.
Here, the pharmacokinetic parameters are Tmax (time to reach the maximum blood concentration), Cmax (maximum blood concentration), AUC (area under the curve of time-blood concentration), and T1/2 (half time in blood), and the AUC was calculated under trapezoid rule (see Tables 6, 7 and FIGS. 1, 2).

Where a name gives a salt, the structure may show the parent alone.

As to `CS(=O)(=O)O.Cc1ccc(Nc2nccc(-c3cccnc3)n2)cc1NC(=O)c1ccc(CN2CCCN(C)CC2)cc1` [Example 6, 4-(4-methylhomopiperazin-1-ylmethyl)-N-[2-methyl-5-(4-(pyridin-3-yl)pyrimidin-2-yl)aminophenyl]benzamide methanesulfonate], the melting point (in general, the temperature of the solid-liquid transition) was in the range of 168 to 170 °C. In addition, in data set [1], the “Improved activity versus Imatinib mesylate” value was found to be 10 times and the IC50 (as a rule, the midpoint of a concentration-inhibition curve) worked out at 3.24 µg/mL. For the same molecule, in data set [2], the IC50 came out at 20.5 µg/mL. In addition, in data set [3], the IC50 came to 5.14 µg/mL.

As for `CN1CCCN(Cc2ccc(C(=O)Nc3cccc(Nc4nccc(-c5cccnc5)n4)c3)cc2)CC1.CS(=O)(=O)O` [Example 12, 4-(4-methylhomopiperazin-1-ylmethyl)-N-[3-(4-(pyridin-3-yl)pyrimidin-2-yl)aminophenyl]benzamide methanesulfonate], the melting point is 206 to 208 °C. For the same molecule, in data set [1], the “Improved activity versus Imatinib mesylate” value turned out to be 32 times and the concentration for half-maximal inhibition (IC50) came to 0.99 µg/mL. In addition, in data set [2], the IC50 turned out to be 10.2 µg/mL. Moreover, the IC50 in data set [3] was determined as 3.41 µg/mL.

On to `Cc1ccc(NC(=O)c2ccc(CN3CCN(C)CC3)cc2)cc1Nc1nccc(-c2cccnc2)n1` [Imatinib mesylate, reference compound], for which, in data set [4], the Cmax (commonly the peak of the concentration-time curve) came out at 2720 ng/mL and the Tmax (as a rule, the time at which the peak concentration occurs) worked out at 2.3 h. Also, the AUC (as a rule, concentration integrated over time) in data set [4] (trapezoid rule) came out at 26500 ng·h/mL.

Regarding `COc1ccc(NC(=O)c2ccc(CN3CCCN(C)CC3)cc2)cc1Nc1nccc(-c2cccnc2)n1.CS(=O)(=O)O` [Example 20, 4-(4-methylhomopiperazin-1-ylmethyl)-N-[4-methoxy-3-(4-(pyridin-3-yl)pyrimidin-2-yl)aminophenyl]benzamide methanesulfonate], the melting point was in the range of 140 to 142 °C. Also, in data set [1], the IC50 came to 4.32 µg/mL. The IC50 in data set [2] came to 34.7 µg/mL. The molecule further had an IC50 in data set [3] of 9.51 µg/mL.

`COc1ccc(NC(=O)c2ccc(CNN3CCN(C)CC3)cc2)cc1Nc1nccc(-c2cccnc2)n1.CS(=O)(=O)O` [Example 22, 4-(4-methylpiperazin-1-ylaminomethyl)-N-[4-methoxy-3-(4-(pyridin-3-yl)pyrimidin-2-yl)aminophenyl]benzamide methanesulfonate] returned a melting point of 142 to 144 °C. In data set [1], the IC50 turned out to be 4.46 µg/mL. The IC50 in data set [2] was determined as 10 µg/mL. In data set [3], this molecule registered an IC50 of 8.61 µg/mL.

On to `CS(=O)(=O)O.O=C(Nc1cccc(Nc2nccc(-c3cccnc3)n2)c1)c1ccc(CN2CCCCC2)cc1` [Example 36, 4-(piperidin-1-ylmethyl)-N-[3-(4-(pyridin-3-yl)pyrimidin-2-yl)aminophenyl]benzamide methanesulfonate], for which the melting point lay in the range of 173 to 175 °C. Moreover, in data set [1], the IC50 was determined as 5.95 µg/mL. For the same molecule, in data set [2], the IC50 was 11.3 µg/mL. For the same molecule, the IC50 in data set [3] came to 6.91 µg/mL.

Molecule `CS(=O)(=O)O.Cc1ccc(Nc2nccc(-c3cccnc3)n2)cc1NC(=O)c1ccc(CNN2CCN(C)CC2)cc1` [Example 8, 4-(4-methylpiperazin-1-ylaminomethyl)-N-[2-methyl-5-(4-(pyridin-3-yl)pyrimidin-2-yl)aminophenyl]benzamide methanesulfonate] returned a melting point of 150 to 152 °C. The same molecule showed an IC50 in data set [1] of 7.38 µg/mL. The IC50 in data set [2] worked out at 27.6 µg/mL. Besides, in data set [3], inhibition was half-maximal at 9.44 µg/mL (IC50).

The molecule `CN1CCCN(Cc2ccc(C(=O)Nc3ccc(F)c(Nc4nccc(-c5cccnc5)n4)c3)cc2)CC1.CS(=O)(=O)O` [Example 34, 4-(4-methylhomopiperazin-1-ylmethyl)-N-[4-fluoro-3-(4-(pyridin-3-yl)pyrimidin-2-yl)aminophenyl]benzamide methanesulfonate] displayed a melting point of 158 to 160 °C. Moreover, in data set [2], the IC50 worked out at 7.17 µg/mL.

For the origin of these results see patent US20040248918A1, “N-phenyl-2-pyrimidine-amine derivatives and process for the preparation thereof” (IL YANG PHARM. CO., LTD., priority 2003, published 2004).
